# Data as given in patent publication US11077145B2, “Method for mass producing proteins in mesenchymal stem cells” (STEMMEDICARE CO., LTD., priority 2015, dated 2021).
# Several values for one entry are separate records, joined by “and”; a condition that tells them apart may be missing. Equal entries are not always repeated. Marks after values point to notes of the source that are not given here.
# Experiments:
# C57BL/6 mice [1] = assay: Anagen hair model, hair growth score and number of hair follicles; format: in vivo, mouse; parameters: hair growth score, Average: scale not given here
# Description: A comparative test was performed to investigate the effect of hair growth promotion of the mesenchymal stem cell conditioned medium of the present invention using C57BL/6 mice. After induction of the hair follicles of the test animal from the telogen (resting phase) to the […] (growing phase) and depilatione, in order to compare the growth promoting effect of the test substance containing 3% of the mesenchymal stem cell conditioned medium of the present invention, G1 (distilled water control), G2 (placebo control), G3 (test substance) and G4 (positive control-minoxidil 5%) were transdermally administered repeatedly for 14 days respectively, and the hair growth promoting effects were compared with the test substance.
# C57BL/6 mice [2] = assay: Hair growth suppression model (dexamethasone), hair growth score and number of hair follicles; format: in vivo, mouse; parameters: hair growth score, Average: scale not given here
# Description: A comparative test was performed to examine the hair growth effect of the mesenchymal stem cell conditioned medium of the present invention using C57BL/6 mice. After depilating the test animals, the depilatory was treated to induce them from the telogen (resting phase) to the anagen (growing phase), and then to suppress the growth of hair follicles, 0.1% of dexamethanone was transdermally administered for 5 days from 8 days after depilation repeatedly. Next, in order to compare the growth promoting effect of the test substance containing 3% of the mesenchymal stem cell conditioned medium of the present invention, the growth promoting effects were compared with the test substance by transdermally administered repeatedly of G1 (distilled water control), G2 (placebo control), G3 (test substance) and G4 (positive control-minoxidil 5%) for 8 days.
# [3] = individual animal average of 3 areas
# [4] = individual animal, female, 13th day
# [5] = individual animal, histopathological examination
# [6] = individual animal, female, 8th day of administration
structure (smiles),measurement,setting,value
"Nc1cc(N2CCCCC2)nc(N)[n+]1[O-] [G4, Minoxidil]","hair growth score, Average","C57BL/6 mice [1]; 15th day, female C57BL/6 mice, average of the four scores per animal",4 (4×) and 3.75 (3×) and 3.5 (3×)
same,"hair growth score, Total Average","C57BL/6 mice [1]; 15th day, female C57BL/6 mice, group average, transdermal administration for 14 days",3.78**
same,"hair growth score, Score 1st","C57BL/6 mice [1]; 15th day, female C57BL/6 mice, individual animal, 1st score",4 (80~100% (4)) (9×) and 3 (60~79% (3))
same,"hair growth score, Score 2nd","C57BL/6 mice [1]; 15th day, female C57BL/6 mice, individual animal, 2nd score",4 (80~100% (4)) (5×) and 3 (60~79% (3)) (5×)
same,"hair growth score, Score 3rd","C57BL/6 mice [1]; 15th day, female C57BL/6 mice, individual animal, 3rd score",4 (80~100% (4))
same,"hair growth score, Score 4th","C57BL/6 mice [1]; 15th day, female C57BL/6 mice, individual animal, 4th score",4 (80~100% (4)) (7×) and 3 (60~79% (3)) (3×)
same,"hair growth score, Total Average","C57BL/6 mice [1]; group average, 13th day",3.27 point
same,"hair growth score, Total Average","C57BL/6 mice [1]; group average, 15th day",3.78 point
same,"number of hair follicles, Total Average","C57BL/6 mice [1]; group average, transdermal for 14 days",104.70
same,"number of hair follicles, Average",C57BL/6 mice [1]; [3],191.33 and 107.67 and 69.00 and 149.67 and 54.67 and 82.67 and 72.33 and 130.33 and 138.67 and 50.67
same,"hair growth score, Average","C57BL/6 mice [1]; individual animal average, 13th day",3.67 (2×) and 4.00 (2×) and 3.33 (2×) and 3.00 and 2.33 and 2.67 (2×)
same,"hair growth score, Score 1st",C57BL/6 mice [1]; [4],3 (60~79% (3)) (4×) and 4 (80~100% (4)) (2×) and 2 (40~59% (2)) (4×)
same,"hair growth score, Score 2nd",C57BL/6 mice [1]; [4],3 (60~79% (3)) (5×) and 4 (80~100% (4)) (2×) and 1 (20~39% (1)) (2×) and 2 (40~59% (2))
same,"hair growth score, Score 3rd",C57BL/6 mice [1]; [4],4 (80~100% (4)) (6×) and 3 (60~79% (3)) (4×)
same,"hair growth score, Score 4th",C57BL/6 mice [1]; [4],4 (80~100% (4)) (5×) and 3 (60~79% (3)) (5×)
same,"number of hair follicles, Area 1",C57BL/6 mice [1]; [5],232 and 48 and 92 and 135 and 45 and 90 and 71 and 149 and 121 and 53
same,"number of hair follicles, Area 2",C57BL/6 mice [1]; [5],209 and 135 and 55 and 155 and 50 and 94 and 79 and 126 and 164 and 41
same,"number of hair follicles, Area 3",C57BL/6 mice [1]; [5],133 and 140 and 60 and 159 and 69 and 64 and 67 and 116 and 131 and 58
same,"number of hair follicles, Total Average","C57BL/6 mice [2]; group average, transdermal for 8 days",66.37
same,"hair growth score, Total Average","C57BL/6 mice [2]; group average, transdermal for 8 days, 8th day",2.68 points
same,"number of hair follicles, Average",C57BL/6 mice [2]; [3],87.67 and 92.33 and 71.00 and 36.33 and 108.33 and 61.33 and 45.33 and 29.67 and 36.00 and 95.67
same,"hair growth score, Average","C57BL/6 mice [2]; individual animal average, 8th day of administration",3.00 (3×) and 1.75 (2×) and 2.25 and 2.75 (2×) and 2.50 and 4.00
same,"hair growth score, Score 1st",C57BL/6 mice [2]; [6],2 (40~59% (2)) (6×) and 1 (20~39% (1)) (2×) and 3 (60~79% (3)) and 4 (80~100% (4))
same,"hair growth score, Score 2nd",C57BL/6 mice [2]; [6],2 (40~59% (2)) (7×) and 1 (20~39% (1)) (2×) and 4 (80~100% (4))
same,"hair growth score, Score 3rd",C57BL/6 mice [2]; [6],4 (80~100% (4)) (4×) and 2 (40~59% (2)) (3×) and 3 (60~79% (3)) (2×) and 1 (20~39% (1))
same,"hair growth score, Score 4th",C57BL/6 mice [2]; [6],4 (80~100% (4)) (7×) and 3 (60~79% (3)) (3×)
same,"number of hair follicles, Area 1",C57BL/6 mice [2]; [5],70 and 97 and 66 and 53 and 114 and 65 and 78 and 46 and 37 and 95
same,"number of hair follicles, Area 2",C57BL/6 mice [2]; [5],96 and 87 (2×) and 65 and 37 (2×) and 108 and 52 and 19 and 48
same,"number of hair follicles, Area 3",C57BL/6 mice [2]; [5],97 and 93 and 82 and 19 and 103 and 67 and 21 and 24 and 23 and 105
